Legend:
Bacillus subtilis = assay: Antibacterial activity against Bacillus subtilis after 24 hrs by serial broth dilution test; type: functional
Candida albicans = assay: Antifungal activity against Candida albicans IFO 1061 after 48 hrs by serial broth dilution test; type: functional; details: IFO 1061, 48 h
Salmonella enteritidis = assay: Antibacterial activity against Salmonella enteritidis after 24 hrs by serial broth dilution test; type: functional, Salmonella enterica subsp. enterica serovar Enteritidis; details: Salmonella enterica
Escherichia coli = assay: Antibacterial activity against Escherichia coli IFO 026 after 24 hrs by serial broth dilution test; type: functional; details: IFO 026, 24 h
Staphylococcus aureus = assay: Antibacterial activity against Staphylococcus aureus after 24 hrs by serial broth dilution test; type: functional

| Structure (SMILES) | MIC (Bacillus subtilis) [mg/L] | MIC (Candida albicans) [mg/L] | MIC (Salmonella enteritidis) [mg/L] | MIC (Escherichia coli) [mg/L] | MIC (Staphylococcus aureus) [mg/L] |
| --- | --- | --- | --- | --- | --- |
| CCc1c2c(OC)c(OC)cc(Br)c2cc2[n+]1CCc1cc3c(cc1-2)OCO3.[Cl-] | 31.2 | 250 | 31.2 | 500 | 31.2 |
| COc1cc(Br)c2cc3[n+](cc2c1OC)CCc1cc2c(cc1-3)OCO2.[Cl-] | 125 | 500 | 125 | > 500 | 125 |
| CCCc1c2c(OC)c(OC)cc(Br)c2cc2[n+]1CCc1cc3c(cc1-2)OCO3.[Cl-] | 15.6 | 125 | 15.6 | 500 | 15.6 |
| CCc1c2c(OC)c(OC)ccc2cc2[n+]1CCc1cc3c(cc1-2)OCO3.[Cl-] | 125 | 125 | 62.5 | > 500 | 62.5 |
| CCCc1c2c(OC)c(OC)ccc2cc2[n+]1CCc1cc3c(cc1-2)OCO3.[Cl-] | 62.5 | 250 | 31.2 | 500 | 31.2 |
| CCCCCCc1c2c(OC)c(OC)cc(Br)c2cc2[n+]1CCc1cc3c(cc1-2)OCO3.[Cl-] | 3.9 | 15.6 | 3.9 | 125 | 3.9 |

Results, then the compound that gave them:

| MIC (Bacillus subtilis) [mg/L] | MIC (Candida albicans) [mg/L] | MIC (Salmonella enteritidis) [mg/L] | MIC (Escherichia coli) [mg/L] | MIC (Staphylococcus aureus) [mg/L] | Structure (SMILES) |
| --- | --- | --- | --- | --- | --- |
| 31.2 | 250 | 31.2 | 500 | 31.2 | COc1cc(Br)c2cc3[n+](c(-c4ccccc4)c2c1OC)CCc1cc2c(cc1-3)OCO2.[Cl-] |
| 7.8 | 62.5 | 15.6 | 250 | 7.8 | CCCCc1c2c(OC)c(OC)cc(Br)c2cc2[n+]1CCc1cc3c(cc1-2)OCO3.[Cl-] |
| 62.5 | 250 | 125 | > 500 | 62.5 | COc1ccc2cc3[n+](c(-c4ccccc4)c2c1OC)CCc1cc2c(cc1-3)OCO2.[Cl-] |
| 250 | 250 | 125 | > 500 | 125 | COc1ccc2cc3[n+](c(C)c2c1OC)CCc1cc2c(cc1-3)OCO2.[Cl-] |
| 31.2 | 250 | 31.2 | 500 | 15.6 | CCCCc1c2c(OC)c(OC)ccc2cc2[n+]1CCc1cc3c(cc1-2)OCO3.[Cl-] |
| 1000 | 500 | 500 | > 2000 | 250 | COc1ccc2cc3[n+](cc2c1OC)CCc1cc2c(cc1-3)OCO2.[Cl-] [BERBERINE CHLORIDE] |
| 3.9 | > 2000 | 62.5 | 31.2 | 31.2 | NC[C@H]1O[C@H](O[C@H]2[C@H](O)[C@@H](O[C@H]3O[C@H](CO)[C@@H](O)[C@H](N)[C@H]3O)[C@H](N)C[C@@H]2N)[C@H](O)[C@@H](O)[C@@H]1O.O=S(=O)(O)O [KANAMYCIN SULFATE] |
